# Measured values from US20250312462A1, “PAK1 DEGRADERS AND METHODS OF USE THEREOF” (INSTITUTE FOR CANCER RESEARCH D/B/A THE RESEARCH INSTITUTE …, priority 2022, published 2025).
# Like-named read-outs stand apart in the source and are kept apart here.
# Columns and labels:
# TNIK = TNIK (Homo sapiens, UniProt Q9UKE5); experiment: KINOMEscan; conditions: read-out: Percent Control
# Protocol: (§4) The kinase engagement assay (KINOMEscan®) was performed by DiscoverX assessing binding abilities toward a set of kinases.
# NDR1 = NDR1 (Homo sapiens, UniProt Q15208); experiment: KINOMEscan; conditions: read-out: Percent Control
# Protocol: as §4
# MCF7 cells = experiment: Cell proliferation, MTT assay; assay type: cell-based; conditions: Homo sapiens, MCF7, MCF7 cells, read-out: EC50, anti-proliferative
# Protocol: (§1) Cell proliferation was assessed by MTT assay.
# (§2) Cell viability was measured by MTT assay and the half maximal inhibitory concentration (IC50) was calculated using GraphPad Prism. Triplicates were performed for each sample and medium alone was used as a blank.
# (§3) The anti-proliferative effects of PAK1 degradation and inhibition were evaluated.
# OMM1 cells = experiment: Cell proliferation, MTT assay; assay type: cell-based; conditions: OMM1 cells (PAK2-dependent)
# Protocol: as §1, §2, §3
# Hey A8 cells = experiment: Cell proliferation, MTT assay; assay type: cell-based
# Protocol: as §1, §2, §3
# [1] = biological target: RSK2(Kin.Dom.2-C-terminal) (Homo sapiens, UniProt P51812); experiment: KINOMEscan; conditions: read-out: Percent Control
# Protocol: as §4
# PFPK5(P. falciparum) = biological target: T1, PFPK5(P. falciparum) (Plasmodium falciparum, UniProt P61075); experiment: KINOMEscan; assay type: binding; conditions: read-out: Percent Control
# T1 construct: purchased DiscoverX
# ACVR2B = ACVR2B (Homo sapiens, UniProt Q13705); experiment: KINOMEscan; conditions: read-out: Percent Control
# Protocol: as §4
# MTOR = MTOR (Homo sapiens, UniProt P42345); experiment: KINOMEscan; conditions: read-out: Percent Control
# Protocol: as §4
# AKT3 = AKT3 (Homo sapiens, UniProt Q9Y243); experiment: KINOMEscan; conditions: read-out: Percent Control
# Protocol: as §4
# ACVR1B = ACVR1B (Homo sapiens, UniProt P36896); experiment: KINOMEscan; conditions: read-out: Percent Control
# Protocol: as §4
# EGFR(L861Q) = EGFR(L861Q) (Homo sapiens, UniProt P00533, L861Q); experiment: KINOMEscan; conditions: read-out: Percent Control
# Protocol: as §4
# CHEK1 = CHEK1 (Homo sapiens, UniProt O14757); experiment: KINOMEscan; conditions: read-out: Percent Control
# Protocol: as §4
# CAMK2G = CAMK2G (Homo sapiens, UniProt Q13555); experiment: KINOMEscan; conditions: read-out: Percent Control
# Protocol: as §4
# PCTK1 = PCTK1 (Homo sapiens, UniProt Q00536); experiment: KINOMEscan; conditions: read-out: Percent Control
# PCTK1, sequence (Q00536 whole entry): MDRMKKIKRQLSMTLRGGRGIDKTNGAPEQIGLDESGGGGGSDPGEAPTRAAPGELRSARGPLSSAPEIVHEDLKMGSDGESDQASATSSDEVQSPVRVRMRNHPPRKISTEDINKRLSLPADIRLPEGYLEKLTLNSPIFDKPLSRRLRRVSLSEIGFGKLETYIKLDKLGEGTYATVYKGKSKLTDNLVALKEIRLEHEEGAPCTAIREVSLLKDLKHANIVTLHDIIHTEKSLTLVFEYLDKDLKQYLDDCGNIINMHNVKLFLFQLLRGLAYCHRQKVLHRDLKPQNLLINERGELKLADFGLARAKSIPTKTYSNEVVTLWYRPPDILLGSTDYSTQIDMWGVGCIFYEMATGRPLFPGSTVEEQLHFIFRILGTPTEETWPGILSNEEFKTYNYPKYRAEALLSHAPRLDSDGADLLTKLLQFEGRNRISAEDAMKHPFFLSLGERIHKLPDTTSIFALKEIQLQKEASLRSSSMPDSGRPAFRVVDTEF
# Protocol: as §4
# S6K1 = S6K1 (Homo sapiens, UniProt P23443); experiment: KINOMEscan; conditions: read-out: Percent Control
# S6K1, sequence (P23443 whole entry): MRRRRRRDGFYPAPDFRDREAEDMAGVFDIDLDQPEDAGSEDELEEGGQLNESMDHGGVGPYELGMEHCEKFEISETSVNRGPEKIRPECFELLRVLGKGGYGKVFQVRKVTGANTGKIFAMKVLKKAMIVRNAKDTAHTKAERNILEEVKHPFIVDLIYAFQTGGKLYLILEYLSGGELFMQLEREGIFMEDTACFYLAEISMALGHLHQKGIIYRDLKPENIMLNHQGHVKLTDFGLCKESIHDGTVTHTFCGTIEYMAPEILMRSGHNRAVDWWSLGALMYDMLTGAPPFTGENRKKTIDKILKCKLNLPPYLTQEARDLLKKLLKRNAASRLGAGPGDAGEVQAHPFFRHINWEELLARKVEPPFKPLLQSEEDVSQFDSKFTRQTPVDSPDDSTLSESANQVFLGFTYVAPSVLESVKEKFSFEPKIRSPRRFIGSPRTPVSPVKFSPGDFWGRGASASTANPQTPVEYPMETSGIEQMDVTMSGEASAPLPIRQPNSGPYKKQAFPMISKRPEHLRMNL
# Protocol: as §4
# AURKC = AURKC (Homo sapiens, UniProt Q9UQB9); experiment: KINOMEscan; conditions: read-out: Percent Control
# Protocol: as §4
# [2] = biological target: JAK2(JH1domain-catalytic) (Homo sapiens, UniProt O60674); experiment: KINOMEscan; conditions: read-out: Percent Control
# JAK2(JH1domain-catalytic), sequence (O60674 849-1124 limits assumed): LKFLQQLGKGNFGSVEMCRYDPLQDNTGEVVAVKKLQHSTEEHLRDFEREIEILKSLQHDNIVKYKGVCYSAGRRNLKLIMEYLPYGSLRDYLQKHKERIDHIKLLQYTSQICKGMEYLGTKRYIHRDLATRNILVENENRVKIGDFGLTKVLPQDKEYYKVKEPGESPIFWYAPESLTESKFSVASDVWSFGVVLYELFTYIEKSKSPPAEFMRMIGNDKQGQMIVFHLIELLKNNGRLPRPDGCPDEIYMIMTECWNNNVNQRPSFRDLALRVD
# Protocol: as §4
# CSNK2A1 = CSNK2A1 (Homo sapiens, UniProt P68400); experiment: KINOMEscan; conditions: read-out: Percent Control
# CSNK2A1, sequence (P68400 whole entry): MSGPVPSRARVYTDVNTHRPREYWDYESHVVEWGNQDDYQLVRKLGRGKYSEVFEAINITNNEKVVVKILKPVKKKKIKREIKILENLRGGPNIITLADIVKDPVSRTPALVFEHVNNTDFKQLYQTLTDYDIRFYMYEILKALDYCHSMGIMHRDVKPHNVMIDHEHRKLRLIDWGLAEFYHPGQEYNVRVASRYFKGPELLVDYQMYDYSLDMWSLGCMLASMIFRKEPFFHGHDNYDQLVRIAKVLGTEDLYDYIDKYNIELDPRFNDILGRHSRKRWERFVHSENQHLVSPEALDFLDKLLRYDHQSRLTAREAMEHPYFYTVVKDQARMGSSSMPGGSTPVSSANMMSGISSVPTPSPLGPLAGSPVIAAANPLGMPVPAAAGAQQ
# Protocol: as §4
# CAMK1B = CAMK1B (Homo sapiens, UniProt Q6P2M8); experiment: KINOMEscan; conditions: read-out: Percent Control
# Protocol: as §4
# ERK8 = ERK8 (Homo sapiens, UniProt Q8TD08); experiment: KINOMEscan; conditions: read-out: Percent Control
# Protocol: as §4
# JNK1 = JNK1 (Homo sapiens, UniProt P45983); experiment: KINOMEscan; conditions: read-out: Percent Control
# Protocol: as §4
# AKT1 = AKT1 (Homo sapiens, UniProt P31749); experiment: KINOMEscan; conditions: read-out: Percent Control
# Protocol: as §4
# PAK4 = PAK4 (Homo sapiens, UniProt O96013); experiment: KINOMEscan; conditions: read-out: Percent Control
# PAK4, sequence (O96013 whole entry): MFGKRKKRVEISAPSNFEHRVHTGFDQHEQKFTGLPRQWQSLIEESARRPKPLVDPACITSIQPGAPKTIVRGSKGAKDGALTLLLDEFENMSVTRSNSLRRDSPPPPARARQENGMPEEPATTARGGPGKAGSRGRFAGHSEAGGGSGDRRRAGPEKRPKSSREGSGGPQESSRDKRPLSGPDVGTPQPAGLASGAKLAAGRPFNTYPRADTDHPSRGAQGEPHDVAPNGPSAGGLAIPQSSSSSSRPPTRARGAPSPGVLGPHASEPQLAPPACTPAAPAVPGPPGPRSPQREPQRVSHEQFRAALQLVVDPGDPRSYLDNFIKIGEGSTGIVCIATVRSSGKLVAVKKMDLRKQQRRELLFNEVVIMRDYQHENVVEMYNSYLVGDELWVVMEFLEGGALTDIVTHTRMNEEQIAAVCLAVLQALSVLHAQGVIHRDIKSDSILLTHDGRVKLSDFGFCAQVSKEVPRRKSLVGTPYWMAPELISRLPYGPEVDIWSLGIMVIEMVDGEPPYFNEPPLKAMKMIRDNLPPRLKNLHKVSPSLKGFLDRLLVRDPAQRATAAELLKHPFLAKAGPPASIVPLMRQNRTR
# Protocol: as §4
# FYN = FYN (Homo sapiens, UniProt P06241); experiment: KINOMEscan; conditions: read-out: Percent Control
# Protocol: as §4
# CAMK1D = CAMK1D (Homo sapiens, UniProt Q8IU85); experiment: KINOMEscan; conditions: read-out: Percent Control
# Protocol: as §4
# ASK1 = ASK1 (Homo sapiens, UniProt Q99683); experiment: KINOMEscan; conditions: read-out: Percent Control
# ASK1, sequence (Q99683 whole entry): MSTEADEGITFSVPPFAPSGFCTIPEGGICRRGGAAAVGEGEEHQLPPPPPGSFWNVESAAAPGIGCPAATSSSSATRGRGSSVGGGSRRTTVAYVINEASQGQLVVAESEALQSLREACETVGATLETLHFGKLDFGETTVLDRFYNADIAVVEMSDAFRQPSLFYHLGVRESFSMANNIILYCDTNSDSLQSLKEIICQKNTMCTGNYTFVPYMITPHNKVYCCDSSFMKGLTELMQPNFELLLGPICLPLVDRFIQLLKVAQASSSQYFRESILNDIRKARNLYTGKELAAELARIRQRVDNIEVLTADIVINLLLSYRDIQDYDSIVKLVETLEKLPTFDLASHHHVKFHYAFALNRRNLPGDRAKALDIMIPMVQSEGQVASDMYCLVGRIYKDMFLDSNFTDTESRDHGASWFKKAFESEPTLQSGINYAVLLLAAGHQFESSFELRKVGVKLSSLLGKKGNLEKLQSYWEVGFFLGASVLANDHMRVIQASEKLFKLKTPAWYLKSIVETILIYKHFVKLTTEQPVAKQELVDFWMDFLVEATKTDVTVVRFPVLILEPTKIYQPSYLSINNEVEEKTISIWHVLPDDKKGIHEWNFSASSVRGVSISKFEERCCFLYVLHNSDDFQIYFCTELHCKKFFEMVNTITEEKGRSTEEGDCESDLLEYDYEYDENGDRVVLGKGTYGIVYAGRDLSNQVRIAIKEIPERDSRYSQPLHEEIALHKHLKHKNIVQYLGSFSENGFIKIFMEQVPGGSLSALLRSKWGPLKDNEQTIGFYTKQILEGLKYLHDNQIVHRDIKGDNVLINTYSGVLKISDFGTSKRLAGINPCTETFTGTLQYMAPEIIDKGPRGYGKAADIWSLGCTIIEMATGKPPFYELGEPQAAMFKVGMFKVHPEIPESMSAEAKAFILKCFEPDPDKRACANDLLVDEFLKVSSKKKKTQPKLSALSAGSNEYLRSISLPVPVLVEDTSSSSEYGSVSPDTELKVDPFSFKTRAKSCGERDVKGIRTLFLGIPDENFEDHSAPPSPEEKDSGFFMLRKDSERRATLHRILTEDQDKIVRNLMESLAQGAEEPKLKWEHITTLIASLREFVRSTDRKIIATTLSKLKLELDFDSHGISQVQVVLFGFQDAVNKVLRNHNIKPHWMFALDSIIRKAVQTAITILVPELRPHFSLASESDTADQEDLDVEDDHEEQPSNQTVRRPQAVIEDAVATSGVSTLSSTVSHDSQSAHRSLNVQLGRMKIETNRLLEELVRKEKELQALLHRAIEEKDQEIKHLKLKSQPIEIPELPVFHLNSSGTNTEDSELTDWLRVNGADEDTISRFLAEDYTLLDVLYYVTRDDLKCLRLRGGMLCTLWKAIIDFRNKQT
# Protocol: as §4
# [3] = biological target: RSK1(Kin.Dom.2-C-terminal) (Homo sapiens, UniProt Q15418); experiment: KINOMEscan; conditions: read-out: Percent Control
# Protocol: as §4
# MEK2 = MEK2 (Homo sapiens, UniProt P36507); experiment: KINOMEscan; conditions: read-out: Percent Control
# Protocol: as §4
# ACVR2A = ACVR2A (Homo sapiens, UniProt P27037); experiment: KINOMEscan; conditions: read-out: Percent Control
# Protocol: as §4
# BRK = BRK (Homo sapiens, UniProt Q13882); experiment: KINOMEscan; conditions: read-out: Percent Control
# Protocol: as §4
# RIPK2 = RIPK2 (Homo sapiens, UniProt O43353); experiment: KINOMEscan; conditions: read-out: Percent Control
# Protocol: as §4
# [4] = biological target: ABL1(E255K)-phosphorylated (Homo sapiens, UniProt P00519, E255K); experiment: KINOMEscan; conditions: read-out: Percent Control
# Protocol: as §4
# [5] = biological target: ABL1(Q252H)-nonphosphorylated (Homo sapiens, UniProt P00519, Q252H); experiment: KINOMEscan; conditions: read-out: Percent Control
# Protocol: as §4
# PIK3CA(E545K) = PIK3CA(E545K) (Homo sapiens, UniProt P42336, E545K); experiment: KINOMEscan; conditions: read-out: Percent Control
# Protocol: as §4
# PRKCH = PRKCH (Homo sapiens, UniProt P24723); experiment: KINOMEscan; conditions: read-out: Percent Control
# Protocol: as §4
# TNIK, sequence (Q9UKE5 whole entry): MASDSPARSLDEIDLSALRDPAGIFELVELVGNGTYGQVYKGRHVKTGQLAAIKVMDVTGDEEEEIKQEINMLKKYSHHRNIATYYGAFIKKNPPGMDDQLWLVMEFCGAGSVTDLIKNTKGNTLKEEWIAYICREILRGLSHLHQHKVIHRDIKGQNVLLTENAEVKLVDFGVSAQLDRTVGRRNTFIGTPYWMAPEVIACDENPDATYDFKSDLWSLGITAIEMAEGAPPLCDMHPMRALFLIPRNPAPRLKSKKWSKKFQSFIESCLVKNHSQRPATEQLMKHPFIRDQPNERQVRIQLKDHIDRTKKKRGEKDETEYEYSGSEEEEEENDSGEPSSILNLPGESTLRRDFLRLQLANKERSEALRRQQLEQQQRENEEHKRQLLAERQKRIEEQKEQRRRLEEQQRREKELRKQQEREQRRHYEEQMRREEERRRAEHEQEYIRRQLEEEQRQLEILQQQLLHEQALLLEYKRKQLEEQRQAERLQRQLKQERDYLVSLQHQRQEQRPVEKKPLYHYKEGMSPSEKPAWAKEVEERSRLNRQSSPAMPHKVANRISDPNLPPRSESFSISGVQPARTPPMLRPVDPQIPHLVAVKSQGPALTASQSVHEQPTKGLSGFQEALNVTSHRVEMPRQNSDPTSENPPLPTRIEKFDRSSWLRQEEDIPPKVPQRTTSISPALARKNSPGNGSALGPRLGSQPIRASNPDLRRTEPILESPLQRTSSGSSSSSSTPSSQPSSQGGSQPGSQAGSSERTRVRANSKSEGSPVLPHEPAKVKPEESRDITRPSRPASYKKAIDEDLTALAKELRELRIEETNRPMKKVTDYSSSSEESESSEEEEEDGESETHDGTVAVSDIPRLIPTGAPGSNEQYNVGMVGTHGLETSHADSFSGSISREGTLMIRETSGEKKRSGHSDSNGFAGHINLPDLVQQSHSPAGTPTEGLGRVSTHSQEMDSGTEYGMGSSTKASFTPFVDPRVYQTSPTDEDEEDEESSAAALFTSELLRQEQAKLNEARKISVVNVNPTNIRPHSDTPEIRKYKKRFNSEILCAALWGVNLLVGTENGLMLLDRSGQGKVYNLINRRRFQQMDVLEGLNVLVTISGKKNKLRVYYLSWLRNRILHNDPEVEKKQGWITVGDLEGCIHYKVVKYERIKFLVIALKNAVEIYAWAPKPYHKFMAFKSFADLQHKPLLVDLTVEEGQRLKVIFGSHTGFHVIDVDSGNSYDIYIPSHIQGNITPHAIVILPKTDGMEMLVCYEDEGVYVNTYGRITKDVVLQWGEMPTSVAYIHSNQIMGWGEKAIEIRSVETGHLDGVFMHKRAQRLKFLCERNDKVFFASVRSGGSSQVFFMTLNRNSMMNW
structure (smiles),measurement,setting,value
"O=C1CCC(N2C(=O)c3cccc(NCCCCCCCCNC(=O)N4CC[C@H](NC5=Nc6cc(F)ccc6N(CC(F)F)c6ccc(Cl)cc65)C4)c3C2=O)C(=O)N1 (stereo partly drawn) [BJG-05-039, (3S)-3-((2-Chloro-5-(2,2-difluoroethyl)-8-fluoro-5H-dibenzo[b,e][1,4]diazepin-11-yl)amino)-N-(8-((2-(2,6-dioxopiperidin-3-yl)-1,3-dioxoisoindolin-4-yl)amino)octyl)pyrrolidine-1-carboxamide]",remaining binding at 10 µM,TNIK,48%
same,remaining binding at 10 µM,NDR1,86%
same,EC50,MCF7 cells; first statement of b311,0.003 µM
same,EC50,MCF7 cells; second listing of b311,0.086 µM
same,Effect on cell proliferation,OMM1 cells,Neither BJG-05-039 or NVS-PAK1-1 significantly affected cell proliferation
same,EC50,"OMM1 cells; OMM-1, read-out: EC50, anti-proliferative",20.8 µM
same,Effect on cell proliferation,Hey A8 cells; HEY-A8 cells (PAK2-dependent),Neither BJG-05-039 or NVS-PAK1-1 significantly affected cell proliferation
same,EC50,"Hey A8 cells; Hey A8 cells (PAK2-dependent), read-out: EC50, anti-proliferative",36 µM
same,remaining binding at 10 µM,[1],87%
same,remaining binding at 10 µM,PFPK5(P. falciparum),100%
same,remaining binding at 10 µM,ACVR2B,46%
same,remaining binding at 10 µM,MTOR,74%
same,remaining binding at 10 µM,AKT3,57%
same,remaining binding at 10 µM,ACVR1B,85%
same,remaining binding at 10 µM,EGFR(L861Q),88%
same,remaining binding at 10 µM,CHEK1,57%
same,remaining binding at 10 µM,CAMK2G,51%
same,remaining binding at 10 µM,PCTK1,97%
same,remaining binding at 10 µM,S6K1,89%
same,remaining binding at 10 µM,AURKC,83%
same,remaining binding at 10 µM,[2],99%
same,remaining binding at 10 µM,CSNK2A1,96%
same,remaining binding at 10 µM,CAMK1B,87%
same,remaining binding at 10 µM,ERK8,63%
same,remaining binding at 10 µM,JNK1,83%
same,remaining binding at 10 µM,AKT1,83%
same,remaining binding at 10 µM,PAK4,75%
same,remaining binding at 10 µM,FYN,71%
same,remaining binding at 10 µM,CAMK1D,68%
same,remaining binding at 10 µM,ASK1,73%
same,remaining binding at 10 µM,[3],48%
same,remaining binding at 10 µM,MEK2,96%
same,remaining binding at 10 µM,ACVR2A,51%
same,remaining binding at 10 µM,BRK,72%
same,remaining binding at 10 µM,RIPK2,67%
same,remaining binding at 10 µM,[4],100%
same,remaining binding at 10 µM,[5],87%
same,remaining binding at 10 µM,PIK3CA(E545K),100%
same,remaining binding at 10 µM,PRKCH,94%
